Experimental findings from ChEMBL document CHEMBL2424646, “Design, synthesis and biological evaluation of novel mansonone E derivatives prepared via CuAAC click chemistry as topoisomerase II inhibitors” (Eur J Med Chem, 2013) are described below.

Calls of active or inactive are those of the source. No cut-off for these calls is given here.

As a reminder, the IC50 is the concentration that inhibits the measured activity by half. Read a low IC50 as greater potency in that assay.

Test [1] deals with T1, DNA topoisomerase 1 (Homo sapiens) (UniProt P11387).
T1 sequence (whole entry): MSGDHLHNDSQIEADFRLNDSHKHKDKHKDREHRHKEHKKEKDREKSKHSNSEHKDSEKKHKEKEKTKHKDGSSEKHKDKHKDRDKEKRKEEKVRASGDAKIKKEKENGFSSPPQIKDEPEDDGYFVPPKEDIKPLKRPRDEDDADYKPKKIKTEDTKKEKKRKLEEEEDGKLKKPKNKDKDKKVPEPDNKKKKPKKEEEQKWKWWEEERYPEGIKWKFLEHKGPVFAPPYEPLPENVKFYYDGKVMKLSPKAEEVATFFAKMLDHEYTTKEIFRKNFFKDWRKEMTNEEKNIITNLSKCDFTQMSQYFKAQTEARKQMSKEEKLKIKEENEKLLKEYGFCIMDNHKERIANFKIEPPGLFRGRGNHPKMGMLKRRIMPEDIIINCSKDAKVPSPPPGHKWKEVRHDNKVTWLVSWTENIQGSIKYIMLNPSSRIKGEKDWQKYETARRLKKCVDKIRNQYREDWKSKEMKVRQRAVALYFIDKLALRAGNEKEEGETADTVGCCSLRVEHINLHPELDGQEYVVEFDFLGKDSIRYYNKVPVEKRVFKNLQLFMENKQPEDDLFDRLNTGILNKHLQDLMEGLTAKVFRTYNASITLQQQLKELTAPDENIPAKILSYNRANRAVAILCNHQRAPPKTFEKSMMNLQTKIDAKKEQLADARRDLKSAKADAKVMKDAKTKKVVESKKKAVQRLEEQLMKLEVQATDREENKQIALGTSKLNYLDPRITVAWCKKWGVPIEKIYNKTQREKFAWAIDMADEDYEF
Description: Inhibition of DNA topoisomerase 1 (unknown origin)-mediated relaxation of supercoiled pBR322 at 50 uM after 30 mins by agarose gel electrophoresis.

The next test relates to HL-60. Description: Cytotoxicity against human HL60 cells after 48 hrs by MTT assay. It counts as functional, cell-based. Conditions: HL-60, 48 h.
A further test concerns K562. In words: Cytotoxicity against human K562 cells after 48 hrs by MTT assay. The class given is functional, cell-based. Conditions: K562, 48 h. For orientation: Tetrazolium assays rely on reduction of a dye to a coloured formazan, in cell work by metabolically active cells.
Test [2] addresses T2, DNA topoisomerase 2-alpha (Homo sapiens, UniProt P11388). In words: Inhibition of human DNA topoisomerase 2alpha using pBR322 DNA at 2 uM after 30 mins by agarose gel electrophoresis.
Test [3] has as its target T2, DNA topoisomerase 2-alpha. In words: Inhibition of human DNA topoisomerase 2alpha-mediated relaxation of supercoiled pBR322 at 20 uM after 30 mins by agarose gel electrophoresis.
For the next test, the system named is HeLa. In words: Cytotoxicity against human HeLa cells after 48 hrs by MTT assay. It counts as functional, cell-based.
A further test concerns A549. Description: Cytotoxicity against human A549 cells after 48 hrs by MTT assay. The class given is functional, cell-based. Conditions: A549, 48 h.
Test [4] concerns the target T2, DNA topoisomerase 2-alpha. Description: Inhibition of human topoisomerase 2alpha assessed as formation of linear form of supercoiled pBR322 DNA at 50 uM after 30 mins by agarose gel electrophoresis.
The target in test [5] is T2, DNA topoisomerase 2-alpha. Description: Inhibition of human DNA topoisomerase 2alpha using pBR322 DNA after 30 mins by agarose gel electrophoresis.
In test [6] the target is T2, DNA topoisomerase 2-alpha. Description: Ratio of mansonone-E IC50 to compound IC50 for human DNA topoisomerase 2alpha.
Test [7] addresses T2, DNA topoisomerase 2-alpha. Conditions: 100 uM.
Description: Inhibition of human topoisomerase 2alpha assessed as formation of linear form of supercoiled pBR322 DNA at 100 uM after 30 mins by agarose gel electrophoresis

T2 sequence (P11388 whole entry): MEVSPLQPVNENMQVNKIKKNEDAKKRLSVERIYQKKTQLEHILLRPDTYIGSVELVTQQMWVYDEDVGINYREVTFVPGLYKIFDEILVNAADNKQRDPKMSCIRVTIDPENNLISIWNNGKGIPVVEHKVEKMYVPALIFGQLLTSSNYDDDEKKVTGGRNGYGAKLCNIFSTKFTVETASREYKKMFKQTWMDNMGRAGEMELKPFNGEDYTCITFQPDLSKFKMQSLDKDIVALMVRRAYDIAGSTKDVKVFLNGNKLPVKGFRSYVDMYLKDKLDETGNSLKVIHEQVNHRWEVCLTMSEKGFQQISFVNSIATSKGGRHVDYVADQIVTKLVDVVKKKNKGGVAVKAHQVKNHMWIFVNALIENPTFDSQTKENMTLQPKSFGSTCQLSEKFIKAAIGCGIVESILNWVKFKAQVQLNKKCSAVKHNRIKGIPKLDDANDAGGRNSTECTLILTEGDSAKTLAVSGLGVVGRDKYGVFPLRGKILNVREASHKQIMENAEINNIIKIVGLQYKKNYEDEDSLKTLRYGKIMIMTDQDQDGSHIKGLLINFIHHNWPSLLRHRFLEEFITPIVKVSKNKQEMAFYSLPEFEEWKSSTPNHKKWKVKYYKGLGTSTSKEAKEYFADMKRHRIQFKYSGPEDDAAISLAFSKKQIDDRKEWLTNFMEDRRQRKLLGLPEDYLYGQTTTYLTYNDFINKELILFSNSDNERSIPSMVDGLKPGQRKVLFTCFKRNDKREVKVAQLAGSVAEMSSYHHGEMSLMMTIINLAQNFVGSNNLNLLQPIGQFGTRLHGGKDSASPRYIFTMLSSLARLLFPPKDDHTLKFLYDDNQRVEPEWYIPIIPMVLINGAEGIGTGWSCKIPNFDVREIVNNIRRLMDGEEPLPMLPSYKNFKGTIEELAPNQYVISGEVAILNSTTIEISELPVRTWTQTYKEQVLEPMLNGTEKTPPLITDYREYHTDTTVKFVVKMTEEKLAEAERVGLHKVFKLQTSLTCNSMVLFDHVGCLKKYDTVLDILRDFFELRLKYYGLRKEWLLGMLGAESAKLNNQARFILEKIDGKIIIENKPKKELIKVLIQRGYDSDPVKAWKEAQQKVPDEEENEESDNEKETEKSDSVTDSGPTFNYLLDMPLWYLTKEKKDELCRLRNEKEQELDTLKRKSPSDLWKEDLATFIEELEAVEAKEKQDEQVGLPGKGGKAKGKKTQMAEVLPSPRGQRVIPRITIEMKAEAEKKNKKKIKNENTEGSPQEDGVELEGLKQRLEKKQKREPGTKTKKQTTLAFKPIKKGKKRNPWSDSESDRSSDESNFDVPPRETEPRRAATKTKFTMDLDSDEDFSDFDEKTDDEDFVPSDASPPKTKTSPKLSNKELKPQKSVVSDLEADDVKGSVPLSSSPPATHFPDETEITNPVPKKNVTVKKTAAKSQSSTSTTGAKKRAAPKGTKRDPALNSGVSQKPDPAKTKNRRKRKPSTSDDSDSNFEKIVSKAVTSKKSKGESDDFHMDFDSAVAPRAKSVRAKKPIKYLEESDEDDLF

Take `CCc1ccc(-c2cn(C3COC4=C(Cl)C(=O)C(=O)c5cccc3c54)nn2)cc1` (stereo not drawn): in [1], the inhibition entry is “inactive”. For the same compound, the concentration for half-maximal inhibition (IC50) in the test with HL-60 worked out at 2.9 µM; with K562, 10.6 µM; in the test with HeLa, 29.1 µM; in the test on A549, 29.5 µM. The inhibition result in test [2] and in test [3] was “Active” throughout.
Consider `CCCc1ccc(-c2cn(C3COC4=C(Br)C(=O)C(=O)c5cccc3c54)nn2)cc1` (stereo not drawn), for which the inhibition entry in test [4] was “inactive”. In addition, the IC50 with HL-60 was found to be 1.49 µM; in the test on K562, 2.82 µM; with HeLa it was 11.8 µM; in the test with A549 it was 17.3 µM. For the same compound, the inhibition entry in [2] and in [3] was “Active” each time.
Consider `CC1=C2OCC(C)c3ccc(C)c(c32)C(=O)C1=O` (stereo not drawn) [MANSONONE E], for which the IC50 in the test on HL-60 is 10.6 µM; in the test with K562, 12.2 µM; in test [5], 18.6 µM; with HeLa, 15.7 µM; in the test with A549, 17.5 µM.
As for `CCCCCc1ccc(-c2cn(C3COC4=C(Br)C(=O)C(=O)c5cccc3c54)nn2)cc1` (stereo not drawn), the IC50 in the test on HL-60 was 2.34 µM; in the test with K562 it was 4.12 µM; in test [5] it was 0.92 µM; in the test on HeLa, 7.72 µM; with A549, 15 µM. Further, the inhibition entry in test [2] and in test [3] was “Active” in each case. For the same compound, the Ratio IC50 in test [6] is 20.
In the case of `COc1cc([C@@H]2c3cc4c(cc3[C@@H](O[C@@H]3O[C@@H]5CO[C@@H](C)O[C@H]5[C@H](O)[C@H]3O)[C@H]3COC(=O)[C@H]23)OCO4)cc(OC)c1O` [ETOPOSIDE], the inhibition result in test [7] is “Active”. Further, the IC50 in the test on HL-60 is 0.33 µM; in the test with K562, 8.45 µM; with HeLa it was 63.7 µM.
Turning to `CCOC(=O)c1cn(C2COC3=C(Br)C(=O)C(=O)c4cccc2c43)nn1` (stereo not drawn), the IC50 in the test on HL-60, with K562, in the test with HeLa and with A549 was over 50 µM throughout. The inhibition result in test [2] and in [3] was “Active” in each case.
Regarding `COc1ccc(-c2cn(C3COC4=C(Br)C(=O)C(=O)c5cccc3c54)nn2)cc1` (stereo not drawn), the IC50 with HL-60 is 10.3 µM; in the test with K562 it was 12.7 µM; in the test with HeLa it was 26.7 µM; with A549, 45.8 µM. In addition, the inhibition result in [2] and in [3] was “Active” in each case.
